{"source": "paper PMC12974487", "about": "“Inhibition of FicD-mediated AMPylation and deAMPylation by isoprenoid diphosphates” (Proceedings of the National Academy of Sciences of the …, 2026)", "key": {"BiP": {"target": "T1, BiP (Homo sapiens, UniProt P11021, T229A)", "T1 construct": "BiPT229A (residues 27-654) was expressed as an 6xHis-Thrombin-T7 n-terminal fusion; 6xHis-Thrombin-T7 (N); made in house; host or cells: Rosetta(DE3) E. coli", "T1 sequence (P11021 27-654 T229A)": "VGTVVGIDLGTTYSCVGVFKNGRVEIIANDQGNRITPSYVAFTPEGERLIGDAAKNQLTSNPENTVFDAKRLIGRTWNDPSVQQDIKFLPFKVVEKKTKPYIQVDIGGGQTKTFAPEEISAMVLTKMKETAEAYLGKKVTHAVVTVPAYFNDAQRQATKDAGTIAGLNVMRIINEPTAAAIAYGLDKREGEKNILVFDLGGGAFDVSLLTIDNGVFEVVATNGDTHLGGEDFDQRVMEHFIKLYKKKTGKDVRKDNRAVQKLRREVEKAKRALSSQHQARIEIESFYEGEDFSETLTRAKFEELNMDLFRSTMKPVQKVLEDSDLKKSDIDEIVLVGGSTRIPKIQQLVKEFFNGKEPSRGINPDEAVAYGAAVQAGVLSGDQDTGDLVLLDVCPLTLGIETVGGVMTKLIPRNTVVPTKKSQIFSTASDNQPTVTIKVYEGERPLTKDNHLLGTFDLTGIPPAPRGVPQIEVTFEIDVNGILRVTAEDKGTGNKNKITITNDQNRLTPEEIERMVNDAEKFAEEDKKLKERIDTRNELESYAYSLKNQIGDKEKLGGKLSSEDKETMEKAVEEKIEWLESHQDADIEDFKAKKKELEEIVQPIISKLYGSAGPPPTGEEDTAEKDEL", "assay": "DSF specificity control with BiP", "type": "binding", "settings": "same increasing metabolite concentrations"}, "FicD^WT [1]": {"target": "T2, FicD^WT (Homo sapiens, UniProt Q9BVA6)", "T2 construct": "soluble ER luminal domain (residues 105 to 458) of wild-type human FicD; 6xHis-Sumo (N, cleaved yes); made in house; host or cells: Rosetta(DE3) E. coli", "T2 sequence (Q9BVA6 105-458)": "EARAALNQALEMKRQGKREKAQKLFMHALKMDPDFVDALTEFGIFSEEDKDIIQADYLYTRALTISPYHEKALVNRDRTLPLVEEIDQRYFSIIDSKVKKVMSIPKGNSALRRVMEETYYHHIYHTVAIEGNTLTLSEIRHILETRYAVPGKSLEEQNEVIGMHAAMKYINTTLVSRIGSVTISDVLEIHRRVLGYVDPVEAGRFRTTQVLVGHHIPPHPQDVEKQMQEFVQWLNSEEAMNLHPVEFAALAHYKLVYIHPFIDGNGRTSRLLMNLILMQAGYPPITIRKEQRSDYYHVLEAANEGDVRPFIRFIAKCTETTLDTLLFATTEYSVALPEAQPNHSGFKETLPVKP", "assay": "In vitro AMPylation of Δ26hBiP^T229A by FicD^WT (Western blot)", "type": "biochemical", "settings": "for inhibition of AMPylation of Δ26hBiP^T229A by FicD^WT: 100 μM metabolite, 500 μM ATP, 5 mM MgCl2; for concentration at which inhibition of AMPylation started: dose-response Western blot, FicD^WT", "description": "(§1) We next sought to assess the effects of FPP, GPP, and isoprenoid analogues on FicD activity. To accurately judge the effects of small molecules on FicD AMPylation activity, we used the ATPase defective BiP^T229A mutant as substrate ([22], [49], [50]). Loss of ATP hydrolysis by the BiP mutant ensures: 1. conformational homogeneity of the BiP protein substrate; 2. lack of BiP competition for the ATP substrate; and 3. no production of ADP, a competitive inhibitor for ATP. In addition, we deleted the first 25 amino acids of BiP for ease with its purification and solubility. […]\nFor AMPylation assays with FicD and BiP, Δ104FicDWT and Δ26hBiPT229A were combined at a ratio\nof 1:80 in buffer containing 25mM HEPES pH 7.4, 100mM KCl, 5mM MgCl2, 500μM ATP, 1mM\nDTT, and small molecule where indicated. Assays with Δ104FicDWT were incubated for 1 hour.\nthe amount of FicD as in reactions containing FicDWT and were incubated at 37C for 4.5 hours. […]"}, "FicD^WT [2]": {"target": "T2, FicD^WT", "assay": "In vitro deAMPylation of Δ26hBiP^T229A-AMP by FicD^WT (Western blot)", "type": "biochemical", "settings": "for inhibition of deAMPylation activity of FicD^WT: 100 μM metabolite, 5 mM MgCl2; for concentration at which inhibition of deAMPylation started: dose-response Western blot, FicD^WT", "description": "as §1\nFor deAMPylation assays with FicD and BiP, Δ26hBiPT229A was in-vitro AMPylated by […]\n5mM MgCl2, 500uM ATP, 0.5% CHAPS, 1mM DTT. After one hour of incubation at 30-37C, the entire reaction mix was transferred into an Amicon 0.5mL 50kDa MWCO concentrator (cat no.\n7.4/150mM NaCl/10% glycerol/1mM DTT was added to the concentrated AMPylation reaction and then spun down again at 14,000 x g at 4C for 5-10 minutes. This step was repeated four times to buffer exchange AMPylated Δ26hBiPT229A.\nΔ104hFicDWT and Δ26hBiPT229A-AMP were combined at a ratio of 1:80 in buffer containing 25mM HEPES pH 7.4, 100mM KCl, 5mM MgCl2, 1mM DTT and the indicated small molecule where applicable. Reactions were incubated at 37C for 1 hour and stopped by the addition EDTA. 5X SDS sample buffer (250mM Tris pH 6.8, 10% Lithium dodecyl sulfate, 50% glycerol, 50mM DTT, 0.05% Bromophenol blue) was then added to the reactions and reactions were heated for 5 minutes at […]"}, "[3]": {"settings": "substrate exceeds FPP by two to three orders of magnitude"}}, "data": [{"smiles": "CC(C)=CCC/C(C)=C/CC/C(C)=C/COP(=O)(O)OP(=O)(O)O", "note": "[FPP, farnesyl-pyrophosphate]", "values": [{"measurement": "change in melt curves or Tm of BiP", "setting": "BiP", "value": "neither GPP nor FPP elicited a change"}, {"measurement": "inhibition of AMPylation of Δ26hBiP^T229A by FicD^WT", "setting": "FicD^WT [1]", "value": "inhibited"}, {"measurement": "concentration at which inhibition of AMPylation started", "setting": "FicD^WT [1]", "value": 5, "unit": "µM"}, {"measurement": "apparent EC50 of inhibition of AMPylation", "setting": "FicD^WT [1]; [3]", "value": "low micromolar range"}, {"measurement": "inhibition of deAMPylation activity of FicD^WT", "setting": "FicD^WT [2]", "value": "inhibited"}, {"measurement": "concentration at which inhibition of deAMPylation started", "setting": "FicD^WT [2]", "value": 1, "unit": "µM"}, {"measurement": "apparent EC50 of inhibition of deAMPylation", "setting": "FicD^WT [2]; [3]", "value": "low micromolar range"}]}, {"smiles": "CC(C)=CCC/C(C)=C/COP(=O)(O)OP(=O)(O)O", "note": "[GPP, geranyl-pyrophosphate]", "values": [{"measurement": "change in melt curves or Tm of BiP", "setting": "BiP", "value": "neither GPP nor FPP elicited a change"}, {"measurement": "inhibition of AMPylation of Δ26hBiP^T229A by FicD^WT", "setting": "FicD^WT [1]", "value": "inhibited"}, {"measurement": "concentration at which inhibition of AMPylation started", "setting": "FicD^WT [1]", "value": 20, "unit": "µM"}, {"measurement": "inhibition of deAMPylation activity of FicD^WT", "setting": "FicD^WT [2]", "value": "inhibited"}, {"measurement": "concentration at which inhibition of deAMPylation started", "setting": "FicD^WT [2]", "value": 5, "unit": "µM"}]}]}
